Values quoted from earlier work as cited in US9554998B1, “Composition of analgesic bioadhesive healing microspheres” (priority 2015, dated 2017).

How the values were obtained:
[1] = applied for 30 minutes to the forearms of healthy volunteers
[2] = single patient

SMILES	local analgesic effect [1]	analgesic control ([2]; liquid sevoflurane directly on to the ulcer bed)	time the ulcer took to heal ([2]; liquid sevoflurane on the ulcer bed) [days]
FC(F)(F)C(Cl)Br (centres unmarked) [halothane]	slight local analgesic effect	–	–
FC(F)OC(Cl)C(F)(F)F (centres unmarked) [isoflurane]	slight local analgesic effect	–	–
FCOC(C(F)(F)F)C(F)(F)F [sevoflurane, fluoromethyl 2.2.2-trifluoro-1-(trifluoromethyl)ethyl ether]	slight local analgesic effect	immediate, intense and long-lasting analgesia	16
